Assay results from the Biogen ADME set (Fang et al. 2023).
Values after ≈ are worked out from the molar mass of the structure shown.

Settings: for aqueous solubility: pH 6.8

MDR1-MDCK efflux ratio | intrinsic clearance, human liver microsomes [mL/min/kg] | intrinsic clearance, rat liver microsomes [mL/min/kg] | aqueous solubility [µg/mL] | Structure (SMILES)
1.48 | 679 | 2090 | 24.3 (≈ 55 µM) | O=C(c1ccc2oc(CCCc3ccccc3)nc2c1)N1CCC(Oc2cccnc2)CC1
– | – | – | 0.66 (≈ 2.13 µM) | CCOc1ccccc1N/C=C1\C(=O)Oc2ccccc2C1=O
22.7 | 535 | 2050 | 35.5 (≈ 88.1 µM) | Cc1cccc(OCCCNc2cc(Cn3c(C)nc4ccccc43)nc(N)n2)c1
– | – | – | 0.13 (≈ 0.358 µM) | Cn1ncc2c(N3CCN(c4ccc(Cl)c(Cl)c4)CC3)ncnc21
1.56 | 7.78 | 32.5 | 33.8 (≈ 82.1 µM) | COc1cccc(-n2nc(C(=O)O)cc2-c2ccc(C3CCCCC3)c(Cl)c2)c1
1.16 | 24 | 74.9 | – | Cc1c(C(=O)Nc2ccc(N3C[C@@H](C)O[C@H](C)C3)nc2)cccc1-c1ccc(OC(F)(F)F)cc1
0.678 | 28.8 | 166 | 2.4 (≈ 6.08 µM) | O=C(c1cccc(Cl)c1)N1CCN(C(=O)c2ccc3ccccc3c2O)CC1
41.5 | – | – | 0.2 (≈ 0.593 µM) | CCC(=O)Nc1cccc(C(=O)N2CCN(C)Cc3ccccc32)c1
2.18 | 270 | 2180 | 48.9 (≈ 138 µM) | Cc1cc(C(=O)N2CCOC(C)(C)C2)cc(C)c1OCc1cccnc1
0.716 | ≤ 4.74 | 26.4 | 57 (≈ 166 µM) | O=C(NC1CCN(c2ccc(OC(F)(F)F)cc2)CC1)N1CCC1
– | 14.7 | 17.1 | – | NC1(c2ccc(-c3nc4ccn5c(=O)[nH]nc5c4cc3-c3ccccc3)cc2)CCC1
16.9 | 92 | 2150 | – | COc1ccc(C)cc1S(=O)(=O)NCCC(=O)Nc1ccccc1C
– | 82.3 | 1900 | 58.1 (≈ 199 µM) | CN(NC(=O)c1ccn(-c2ccccc2)n1)c1ccccc1

Second part, the molecule before the results:

Structure (SMILES) | MDR1-MDCK efflux ratio | intrinsic clearance, human liver microsomes [mL/min/kg] | intrinsic clearance, rat liver microsomes [mL/min/kg] | aqueous solubility [µg/mL]
O=C(CC[C@@H]1CCCN2CCCC[C@H]12)NCc1ncc(Cl)cn1 | 33.8 | ≤ 4.74 | 37.6 | –
Cc1noc(OCC(=O)N2CCCCCC2)n1 | 1.01 | ≤ 4.74 | ≤ 10.7 | 50.2 (≈ 210 µM)
CCOc1ncccc1-c1nc(C)cc(NC)n1 | 0.672 | ≤ 4.74 | 26.1 | 36.4 (≈ 149 µM)
CN(C)Cc1csc(-c2nccn2-c2ccc3c(c2)n(C)c(=O)n3C)c1 | 72.5 | ≤ 4.74 | 38.2 | 31.4 (≈ 85.6 µM)
OCC1CN(c2nc3cc(F)ccc3o2)C1 | 0.704 | ≤ 4.74 | 17.2 | –
CN(C)[C@@H]1CN(C(=O)COc2ccccc2)C[C@H]1O | – | ≤ 4.74 | 17.6 | 83.3 (≈ 315 µM)
Cc1cc(CSCc2c(C)noc2C)no1 | – | 130 | 1910 | –
NC1(c2noc(-c3cccnc3)n2)CCCCCC1 | – | ≤ 4.74 | 444 | –
COCCOc1cnc2ccn([C@H](C)c3nnc4c(F)cc(-c5cnn(C)c5)cn34)c(=O)c2c1 | 126 | 6.14 | 25.1 | –
Cc1cccc(NC(=O)CN2C(=O)N(C)C3(CCCCC3)C2=O)c1C | – | 506 | 2640 | 59.8 (≈ 174 µM)
